Test results published in patent publication US11020358B2, “Method for the anti-senescence of and/or rejuvenating stem cells” (GWO XI STEM CELL APPLIED TECHNOLOGY CO., LTD., priority 2014, dated 2021).

Tested on: Wister rats
Assay: Liver fibrosis rat model: biochemical functional indexes of cardiac blood
Format: in vivo
Conditions: 200 mg/kg TAA i.p. once every three days for 60 days, cardiac blood 4 days after last injection
Protocol: 200 mg/kg of thioacetamide (TAA) was intraperitoneally injected to 8-week-old male Wister rats (n=35) once every three days for 60 days (i.e., 20 injections in total) to obtain a liver fibrosis rat model (hereinafter referred to as the “TAA group” rat). Additionally, rats that injected with equal volume of normal saline but not TAA were served as a “control group” (n=12). At 4 days after the last injection, four rats in the “control group” and three rats in the “TAA group” were anesthetized with ether and analyzed by the following experiments.
The cardiac blood of the “control group” and “TAA group” rats was collected and measured by a biochemical analyzer (Roche, Integra 800) to analyze the biochemical functional indexes, and thereby, evaluating the extent of hepatic damage. The biochemical functional indexes include the expression level of glutamate oxaloacetate transaminase (GOT), the expression level of glutamate pyruvate transaminase (GPT), the expression level of albumin, the expression level of total bilirubin, and prothrombin time.

SMILES: CC(=N)S [TAA, thioacetamide]
- Albumin: 2.8 ± 0.4 g/dL
- GOT: 546 ± 48 Units/L
- GPT: 138 ± 47 Units/L
- Prothrombin time: 16.4 ± 3.0 s
- Total bilirubin: 0.049 ± 0.009 mg/dL
